Assay results: patent publication US5114920A, “BU-3292T antibiotics” (priority 1988, dated 1992)
≈ marks a conversion by molar mass, not a printed value. Starred links: 1 amine or outer side, 2 acyl side, 3 side chain; linkers in the order of their positions; H or OH if unused. Positions of bridges follow the written chain, without caps; N, C: chain ends. Non-standard residues stand in square brackets, D forms with d. Residues, ends and D or L forms follow the SMILES beside them. Chains are numbered I, II in the order given. Actinocin(9to1) = Cc1c2oc3c(C)ccc(C(=O)[*:1])c3nc-2c(C(=O)[*:2])c(N)c1=O; X2 = CC1CCC(C(=O)[*:2])N1[*:1]; NMeV = CN[CH](C(=O)O)C(C)C; Sar = CNCC(=O)O

Columns and labels:
[1] = test system: Aspergillus fumigatus IAM 2530; assay: Antimicrobial activity, serial two-fold agar dilution method; assay type: cell-based; conditions: Sabouraud dextrose agar
Description: (§1) The antimicrobial activity of BU-3292T A and B was determined against aerobic and anaerobic bacteria and fungi by a serial two-fold agar dilution method. BU-3292T A and B are active against aerobic gram-positive bacteria, and weakly active against anaerobic gram-negative bacteria and fungi.

[2] = test system: Bacillus subtilis PCI-219; assay: as above; assay type: cell-based; conditions: Nutrient agar
Description: as §1

[3] = test system: Bacteroides fragilis A22693; assay: as above; assay type: cell-based; conditions: GAM agar
Description: as §1

[4] = test system: Candida albicans IAM 4888; assay: as above; assay type: cell-based; conditions: Sabouraud dextrose agar
Description: as §1

[5] = test system: Clostridium difficile A21675; assay: as above; assay type: cell-based; conditions: GAM agar
Description: as §1

[6] = test system: Cryptococcus neoformans IAM 4519; assay: as above; assay type: cell-based; conditions: Sabouraud dextrose agar
Description: as §1

[7] = test system: Escherichia coli NIHJ; assay: as above; assay type: cell-based; conditions: Nutrient agar
Description: as §1

[8] = test system: Fusarium moniliforme A2284; assay: as above; assay type: cell-based; conditions: Sabouraud dextrose agar
Description: as §1

[9] = test system: Klebsiella pneumoniae D11; assay: as above; assay type: cell-based; conditions: Nutrient agar
Description: as §1

[10] = test system: Micrococcus luteus 1001; assay: as above; assay type: cell-based; conditions: Nutrient agar
Description: as §1

[11] = test system: Mucor spinosus IFO 5317; assay: as above; assay type: cell-based
Description: as §1

[12] = test system: Propionibacterium acnes A21933; assay: as above; assay type: cell-based; conditions: GAM agar
Description: as §1

[13] = test system: Propionibacterium anaerobius A21905; assay: as above; assay type: cell-based; conditions: GAM agar
Description: as §1

[14] = test system: Proteus mirabilis A9554; assay: as above; assay type: cell-based; conditions: Nutrient agar
Description: as §1

[15] = test system: Proteus vulgalis A9436; assay: as above; assay type: cell-based; conditions: Nutrient agar
Description: as §1

[16] = test system: Pseudomonas aeruginosa A9930; assay: as above; assay type: cell-based; conditions: Nutrient agar
Description: as §1

[17] = test system: Staphylococcus aureus 209P; assay: as above; assay type: cell-based; conditions: Nutrient agar
Description: as §1

[18] = test system: Staphylococcus aureus smith; assay: as above; assay type: cell-based; conditions: Nutrient agar
Description: as §1

[19] = test system: Staphylococcus epidermidis D153; assay: as above; assay type: cell-based; conditions: Nutrient agar
Description: as §1

[20] = test system: Streptococcus faecalis A9612; assay: as above; assay type: cell-based; conditions: Nutrient agar
Description: as §1

[21] = test system: Streptococcus pyogenes A20201; assay: as above; assay type: cell-based; conditions: Nutrient agar
Description: as §1

[22] = test system: Trichophyton mentagrophytes D155; assay: as above; assay type: cell-based; conditions: Sabouraud dextrose agar
Description: as §1

[23] = test system: Clostridium perfringens A9635; assay type: cell-based; conditions: GAM agar
[24] = test system: B16-F10 (murine melanoma) cells; assay: In vitro cytotoxicity, neutral red staining; assay type: cell-based
Description: (§2) BU-3292T components A and B were tested for in vitro cytotoxicity against murine and human tumor cells and for in vivo antitumor activity in mice. Actinomycin D was used as a reference compound in both in vitro and in vivo experiments. B16-F10 (murine melanoma) and Moser (human colorectal carcinoma) cells were grown to the logarithmic phase in enriched Eagle minimum essential medium (MEM) supplemented with fetal calf serum (FCS, 10%) and kanamycin (60 mcg/ml), harvested and inoculated into wells of a 96-well microtiter plate with test materials at the concentrations of 3.0×10^4 and 6.0×10^4 cells/ml, respectively. They were incubated at 37° C. in humidified atmosphere of 5% CO2 and 95% air for 72 hours. The cytotoxic activity was determined colorimetrically at 540 nm after staining viable cells with neutral red. […] Inhibitory effects of BU-3292T component A on macromolecule (DNA, RNA and protein) synthesis were determined in vitro. Cultured L1210 murine leukemia cells (5×10^5 cells/ml) were incubated with test materials at 37° C. for 15 minutes and then further incubated for 60 minutes after the addition of labelled precursor, ^3 H-thymidine, ^14 C-uridine or ^3 H-leucine, into the cultured mixtures. After washing with chilled 5% trichloroacetic acid solution, the radioactivity incorporated into the acid-insoluble fraction of the tumor cells was determined in a liquid scintillation counter. […] In vivo antitumor activities of BU-3292T components A and B were tested in tumor-bearing female CDF mice. After the intraperitoneal implantation of diluted ascitic fluid with 1.0 ×10^6 lymphocytic leukemia P388 cells into the mice, test compounds were administered intraperitoneally once a day on days 1, 2 and 3 (QD×3).

[25] = test system: Moser (human colorectal carcinoma) cells; assay: In vitro cytotoxicity, neutral red staining; assay type: cell-based; conditions: 72 hours
Description: as §2

[26] = test system: lymphocytic leukemia P388; assay: Antitumor activity against P388 leukemia (ip); assay type: in vivo, mice; conditions: for MST (Median survival time) / T/C: QD × 3, ip
Description: as §2

[27] = Body weight change in P388-bearing mice; conditions: QD × 3, ip
Description: as §2

[28] = Solubility; assay type: physicochemical
Text: BU-3292T A is isolated as a white amorphous powder, while BU-3292T B is an orange-red powder. […] The compounds give positive responses to iodine and Rydone-Smith reagents, but negative responses to Sakaguchi, ferric chloride, ninhydrin and anthrone reagents. […] The IR spectra of BU-3292T A and B are illustrated in FIGS. 1 and 2, respectively.

[29] = test system: aerobic gram-positive bacteria; assay: Antimicrobial activity, agar dilution, summary in words; assay type: cell-based; conditions: summary of Table 6
Description: as §1

[30] = test system: anaerobic gram-negative bacteria and fungi; assay: as above; assay type: cell-based; conditions: summary of Table 6
Description: as §1

[31] = test system: gram-negative bacteria; assay: as above; assay type: cell-based; conditions: summary of Table 6
Description: as §1

Cc1c2oc3c(C)ccc(C(=O)NC4C(=O)NC(C(C)C)C(=O)N5C(C)CCC5C(=O)N(C)CC(=O)N(C)C(C(C)C)C(=O)OC4C)c3nc-2c(C(=O)NC2C(=O)NC(C(C)C)C(=O)N3C(C)CCC3C(=O)N(C)CC(=O)N(C)C(C(C)C)C(=O)OC2C)c(N)c1=O (centres unmarked) [BU-3292T B] (I: TV[X2][Sar][NMeV] / II: TV[X2][Sar][NMeV]; ester I:1-I:C, II:1-II:C; linker I:N-II:N via Actinocin(9to1); configuration not given here)
MIC [1]: > 100 mg/L | MIC [2]: 0.8 mg/L (≈ 0.623 µM) | MIC [3]: > 100 mg/L | MIC [4]: > 100 mg/L | MIC [5]: > 100 mg/L | MIC [6]: > 100 mg/L | MIC [7]: > 100 mg/L | MIC [8]: 50 mg/L (≈ 39 µM) | MIC [9]: 100 mg/L (≈ 77.9 µM) | MIC [10]: 0.4 mg/L (≈ 0.312 µM) | MIC ([11]; Mucor spinosus IFO 5317, Sabouraud dextrose agar): 25 mg/L (≈ 19.5 µM) | MIC ([11]; in vitro against Mucor spinosus IF05317): 25 mg/L (≈ 19.5 µM) | MIC [12]: 12.5 mg/L (≈ 9.74 µM) | MIC [13]: 6.3 mg/L (≈ 4.91 µM) | MIC [14]: > 100 mg/L | MIC [15]: > 100 mg/L | MIC [16]: > 100 mg/L | MIC [17]: 1.6 mg/L (≈ 1.25 µM) | MIC [18]: 1.6 mg/L (≈ 1.25 µM) | MIC [19]: 1.6 mg/L (≈ 1.25 µM) | MIC [20]: 0.8 mg/L (≈ 0.623 µM) | MIC [21]: 0.8 mg/L (≈ 0.623 µM) | MIC [22]: > 100 mg/L | MIC [23]: 25 mg/L (≈ 19.5 µM) | IC50 ([24]; B16-F10, 72 hours): < 0.00016 mg/L | times stronger against B16-F10 cells than against Moser cells ([24]; cytotoxic activity, B16-F10 versus Moser): ~400 times | IC50 [25]: 0.06 mg/L (≈ 0.0467 µM) | MST (Median survival time) ([26]; 0.003 mg/kg/day): 11.0 days | T/C ([26]; 0.003 mg/kg/day): 110% | MST (Median survival time) ([26]; 0.01 mg/kg/day): 12.0 days | T/C ([26]; 0.01 mg/kg/day): 120% | MST (Median survival time) ([26]; 0.03 mg/kg/day): 14.0 days | T/C ([26]; 0.03 mg/kg/day): 140% | MST (Median survival time) ([26]; 0.1 mg/kg/day): 16.0 days | T/C ([26]; 0.1 mg/kg/day): 160% | MST (Median survival time) ([26]; 0.3 mg/kg/day): 8.0 days | T/C ([26]; 0.3 mg/kg/day): 80% | MST (Median survival time) ([26]; 1 mg/kg/day): Tox | T/C ([26]; 1 mg/kg/day): Tox | maximum T/C value ([26]; anti-P388 leukemic activity, QD×3, ip): 160% | Body weight change on day 4 ([27]; 0.003 mg/kg/day): +1.0 g | Body weight change on day 4 ([27]; 0.01 mg/kg/day): +1.0 g | Body weight change on day 4 ([27]; 0.03 mg/kg/day): +1.0 g | Body weight change on day 4 ([27]; 0.1 mg/kg/day): -1.0 g | Body weight change on day 4 ([27]; 0.3 mg/kg/day): -3.3 g | solubility in dimethyl sulfoxide, dimethylformamide, methanol, ethyl acetate and chloroform ([28]; dimethyl sulfoxide, dimethylformamide, methanol, ethyl acetate, chloroform): readily soluble | solubility in water and other organic solvents ([28]; water and other organic solvents): insoluble | activity against aerobic gram-positive bacteria [29]: active | activity against anaerobic gram-negative bacteria and fungi [30]: weakly active | activity against gram-negative bacteria [31]: inactive
